# Source: US7485646B2, “Serotonin 5-HT3 receptor agonist” (Research Foundation Itsuu Laboratory, priority 2004, dated 2009)
# Where “and” joins values, the source holds several entries; their conditions need not be identical. Equal values may be shown once.
# Legend:
# serotonin 5-HT3 receptor [1] = target: T1, serotonin 5-HT3 receptor (Homo sapiens, UniProt P46098); test: Serotonin 5-HT3 receptor binding affinity ([3H]-GR-65630 binding inhibition); conditions: 1 μM test compound, membrane fraction from HEK-293 cells; for inhibition at 1 µM: read-out: [3H]-GR65630 binding inhibition rate at 1 μM
# T1 construct: expressed in transfected cells; host or cells: HEK-293 cells (membrane fraction)
# T1 sequence (P46098 24-478): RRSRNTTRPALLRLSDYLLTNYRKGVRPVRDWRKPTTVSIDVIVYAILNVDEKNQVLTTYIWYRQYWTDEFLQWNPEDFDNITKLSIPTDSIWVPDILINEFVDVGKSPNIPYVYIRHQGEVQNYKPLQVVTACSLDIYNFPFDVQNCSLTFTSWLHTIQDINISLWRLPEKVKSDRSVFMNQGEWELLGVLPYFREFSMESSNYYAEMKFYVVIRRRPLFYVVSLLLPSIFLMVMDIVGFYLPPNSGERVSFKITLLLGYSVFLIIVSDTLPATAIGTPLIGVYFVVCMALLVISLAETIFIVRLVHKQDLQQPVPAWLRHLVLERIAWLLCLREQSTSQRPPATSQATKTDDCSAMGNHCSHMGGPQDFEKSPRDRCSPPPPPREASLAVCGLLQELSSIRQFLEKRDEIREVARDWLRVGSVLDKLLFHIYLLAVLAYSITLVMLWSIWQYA
# Protocol: Serotonin 5-HT3 receptor binding affinities of the urea derivatives of the present invention and typical compounds among known urea derivatives, N-phenyl-4-methylpiperazine-1-carboxyamide (A), N-(4,5-dichlorophenyl)-4-methylppiperazine-1-carboxyamide (B), N-(3,5-trifluoromethylphenyl)-4-methylpiperazine-1-carboxyamide (C), N-(3-fluorophenyl)-4-methylpiperazine-1-carboxyamide (D) and N-(5-chloro-2-methoxyphenyl)-(4-tert-butyloxycarbonylpiperazine)-1-carboxyamide (E), were determined by the following method, and the results are shown in Table 1. The test compounds of the present invention are mentioned with the example numbers.
# According to the method of Boess et al. (Neuropharmacology, 36, 637-647, 1997), affinities were examined by using a membrane fraction obtained from HEK-293 cells and a ligand selective to the serotonin 5-HT3 receptor, [3H]-GR-65630 [3-(5-methyl-1H-imidazol-4-yl)-1-(1-methyl-1H-indol-3-yl)-1-propanone] on the basis of inhibitory actions of the test compounds on the specific binding to GR-65630 as an index.
# [2] = test system: cisplatin-induced emesis in beagles; test: Antiemetic action on cisplatin-induced emesis in dogs; type: in vivo; conditions: for Number of emesis 0 to 120 (minute) / Number of emesis 121 to 360 (minute) / Time of initial occurrence: 0.5 mg/kg i.v. 30 minutes before cisplatin 3 mg/kg i.v., one value per animal
# Protocol: Actions on cisplatin-induced emesis in beagles of 1-(2-hydroxyethyl)-1-methyl-4-(3,5-dichlorophenylcarbamoyl)piperazinium bromide as the compound of the present invention and 5-chloro-2-(1-homopiperazinyl)-7-methylbenzooxazole (F) (International Publication WO00/31073), which is a benzoxazole derivative having a chemical structure similar to that of the novel urea derivative of the present invention among the known serotonin 5-HT3 receptor partially activating agents, were determined by the following method. The compound of the present invention is mentioned with the example number.
# After starvation for 16 hours from one day before the day of the test, beagles (each group consisted of two dogs) were given 300 g of feed pellets and intravenously received cisplatin at a dose of 3 mg/kg 30 minutes later. The test compound was intravenously given 30 minutes before the administration of cisplatin, and frequency and time of emesis were monitored over 6 hours.
# serotonin 5-HT3 receptor [3] = target: T2, serotonin 5-HT3 receptor (Cavia porcellus, UniProt O70212); test: Test for serotonin 5-HT3 receptor partially activating action (guinea pig ileum longitudinal muscle contraction); parameters: species or system Hartley guinea pigs; conditions: for Activating action: guinea pig ileum contraction relative to 2.6 μM serotonin 5-HT; for Antagonistic action: suppression rate of serotonin 5-HT-induced contraction, guinea pig ileum
# T2 construct: longitudinal muscle samples were prepared from the ileums of male or female Hartley guinea pigs; from tissue; host or cells: guinea pig ileum longitudinal muscle
# T2 sequence (O70212 20-490): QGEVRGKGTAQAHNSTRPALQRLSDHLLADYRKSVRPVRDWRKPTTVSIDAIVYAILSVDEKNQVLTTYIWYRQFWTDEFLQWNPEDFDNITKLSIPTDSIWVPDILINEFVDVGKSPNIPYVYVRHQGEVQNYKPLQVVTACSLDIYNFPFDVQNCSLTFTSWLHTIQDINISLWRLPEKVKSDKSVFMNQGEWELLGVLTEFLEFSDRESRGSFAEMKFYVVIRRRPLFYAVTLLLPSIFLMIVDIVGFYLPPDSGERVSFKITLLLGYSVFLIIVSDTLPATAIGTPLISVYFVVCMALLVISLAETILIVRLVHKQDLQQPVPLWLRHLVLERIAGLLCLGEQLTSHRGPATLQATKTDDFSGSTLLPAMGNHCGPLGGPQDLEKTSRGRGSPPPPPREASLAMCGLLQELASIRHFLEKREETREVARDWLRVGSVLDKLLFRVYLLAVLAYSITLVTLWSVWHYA
# Protocol: The serotonin 5-HT3 receptor antagonistic action and the serotonin 5-HT3 receptor activating action of 1-(2-hydroxyethyl)-1-methyl-4-(3,5-dichlorophenylcarbamoyl)piperazinium iodide as the compound of the present invention were determined according to the method of Butler et al. (Br. J. Pharmacol, 94, 397-412, 1988).
# About 30-mm longitudinal muscle samples were prepared from the ileums of male or female Hartley guinea pigs (325±25 g). Each sample was hung down in a Magnus tube filled with 10 ml of Krebs solution (pH 7.4, 32° C.) with ventilation of a mixed gas (95% O2, 5% CO2), and loaded with a tension of 1 g, and contractile responses were measured isometrically. The serotonin 5-HT3 receptor activating action of the test compound was represented in terms of a relative value obtained by comparison of the contraction obtained by adding 2.6 μM of serotonin 5-HT to the sample and the contraction of 50% or more obtained within 5 minutes as a percentage based on the maximum contraction. The serotonin 5-HT3 receptor antagonistic action of the test compound was obtained from the contraction suppression rate obtained by adding serotonin 5-HT to the sample.
structure (smiles),measurement,setting,value
"COc1ccc(Cl)cc1NC(=O)N1CC[N+](C)(C)CC1 [Example 19, 1,1-Dimethyl-4-(2-methoxy-5-chlorophenylcarbamoyl)piperazinium iodide]",inhibition at 1 µM,serotonin 5-HT3 receptor [1],94%
"CN1CCN(C(=O)Nc2ccc(Cl)c(Cl)c2)CC1 [B, N-(4,5-dichlorophenyl)-4-methylppiperazine-1-carboxyamide, reference compound]",[3H]-GR65630 binding inhibition rate at 1 μM,serotonin 5-HT3 receptor [1],22%
"COc1ccc(Cl)cc1NC(=O)N1CC[N+](C)(CCO)CC1 [Example 21, 1-(2-Hydroxyethyl)-1-methyl-4-(2-methoxy-5-chlorophenylcarbamoyl)-piperazinium iodide]",inhibition at 1 µM,serotonin 5-HT3 receptor [1],98%
"CCC[N+]1(C)CCN(C(=O)Nc2cc(Cl)cc(Cl)c2)CC1 [Example 12, 1-Propyl-1-methyl-4-(3,5-dichlorophenylcarbamoyl)piperazinium bromide]",inhibition at 1 µM,serotonin 5-HT3 receptor [1],98%
"C[N+]1(CCO)CCN(C(=O)Nc2cc(Cl)cc(Cl)c2)CC1.[Br-] [Example 30, 1-(2-Hydroxyethyl)-1-methyl-4-(3,5-dichlorophenylcarbamoyl)-piperazinium bromide]",Emesis at the initial stage of administration (action on the central nerve system),[2],no emesis was observed at the initial stage
same,Suppression of cisplatin-induced emesis in dogs (in words),[2],effectively suppressed
same,Number of emesis 0 to 120 (minute),[2],0
same,Number of emesis 121 to 360 (minute),[2],1 and 0
same,Time of initial occurrence,[2],165 min
"Cc1cc(Cl)cc2nc(N3CCCNCC3)oc12 [F, 5-chloro-2-(1-homopiperazinyl)-7-methylbenzooxazole, reference compound]",Time at which emesis occurred after the administration,[2],≤ 90 min
same,Number of emesis 0 to 120 (minute),[2],14 and 8
same,Number of emesis 121 to 360 (minute),[2],15 and 6
same,Time of initial occurrence,[2],88 min and 79 min
"C=CC[N+]1(C)CCN(C(=O)Nc2cc(Cl)ccc2OC)CC1 [Example 20, 1-Allyl-1-methyl-4-(2-methoxy-5-chlorophenylcarbamoyl)piperazinium iodide]",inhibition at 1 µM,serotonin 5-HT3 receptor [1],92%
"C[N+]1(CCO)CCN(C(=O)Nc2cc(Cl)cc(Cl)c2)CC1.[I-] [Example 11, 1-(2-Hydroxyethyl)-1-methyl-4-(3,5-dichlorophenylcarbamoyl)-piperazinium iodide]",inhibition at 1 µM,serotonin 5-HT3 receptor [1],104%
same,Activating action,serotonin 5-HT3 receptor [3]; 1 μM,0%
same,Antagonistic action,serotonin 5-HT3 receptor [3]; 1 μM,15%
same,Activating action,serotonin 5-HT3 receptor [3]; 3 μM,4%
same,Antagonistic action,serotonin 5-HT3 receptor [3]; 3 μM,30%
same,Activating action,serotonin 5-HT3 receptor [3]; 10 μM,14%
same,Antagonistic action,serotonin 5-HT3 receptor [3]; 10 μM,37%
same,Activating action,serotonin 5-HT3 receptor [3]; 30 μM,31%
same,Antagonistic action,serotonin 5-HT3 receptor [3]; 30 μM,27%
same,Activating action,serotonin 5-HT3 receptor [3]; 100 μM,23%
same,Antagonistic action,serotonin 5-HT3 receptor [3]; 100 μM,36%
same,Serotonin 5-HT3 receptor agonist character (in words),serotonin 5-HT3 receptor [3]; Table 2,having both the serotonin 5-HT3 receptor antagonistic action and the serotonin 5-HT3 receptor activating action
"CN1CCN(C(=O)Nc2cc(C(F)(F)F)cc(C(F)(F)F)c2)CC1 [C, N-(3,5-trifluoromethylphenyl)-4-methylpiperazine-1-carboxyamide, reference compound]",[3H]-GR65630 binding inhibition rate at 1 μM,serotonin 5-HT3 receptor [1],2%
"C[N+]1(C)CCN(C(=O)Nc2cc(Cl)cc(Cl)c2)CC1 [Example 9, 1,1-Dimethyl-4-(3,5-dichlorophenylcarbamoyl)piperazinium iodide]",inhibition at 1 µM,serotonin 5-HT3 receptor [1],104%
"C[N+]1(Cc2ccccc2)CCN(C(=O)Nc2cc(Cl)cc(Cl)c2)CC1 [Example 14, 1-Benzyl-1-methyl-4-(3,5-dichlorophenylcarbamoyl)piperazinium bromide]",inhibition at 1 µM,serotonin 5-HT3 receptor [1],96%
"C[N+]1(CC2CC2)CCN(C(=O)Nc2cc(Cl)cc(Cl)c2)CC1 [Example 13, 1-Cyclopropylmethyl-1-methyl-4-(3,5-dichlorophenylcarbamoyl)-piperazinium bromide]",inhibition at 1 µM,serotonin 5-HT3 receptor [1],98%
"C=CC[N+]1(C)CCN(C(=O)Nc2cc(Cl)cc(Cl)c2)CC1 [Example 10, 1-Allyl-1-methyl-4-(3,5-dichlorophenylcarbamoyl)piperazinium iodide]",inhibition at 1 µM,serotonin 5-HT3 receptor [1],105%
"COc1ccc(Cl)cc1NC(=O)N1CCN(C(=O)OC(C)(C)C)CC1 [E, N-(5-chloro-2-methoxyphenyl)-(4-tert-butyloxycarbonylpiperazine)-1-carboxyamide, reference compound]",[3H]-GR65630 binding inhibition rate at 1 μM,serotonin 5-HT3 receptor [1],5%
